In general, pIC50 refers to −log10 of the IC50, conventionally taken in molar units.

pIC50: −log10 of the molar value.

Data on 27 molecules can be found in patent US8063065B2, “Azaindazole compounds as CCR1 receptor antagonists” (Boehringer Ingelheim International GmbH, priority 2008, dated 2011).

In the experiment the target is T1, CCR1 (Homo sapiens, UniProt P32246).
T1 sequence (P32246 1-355): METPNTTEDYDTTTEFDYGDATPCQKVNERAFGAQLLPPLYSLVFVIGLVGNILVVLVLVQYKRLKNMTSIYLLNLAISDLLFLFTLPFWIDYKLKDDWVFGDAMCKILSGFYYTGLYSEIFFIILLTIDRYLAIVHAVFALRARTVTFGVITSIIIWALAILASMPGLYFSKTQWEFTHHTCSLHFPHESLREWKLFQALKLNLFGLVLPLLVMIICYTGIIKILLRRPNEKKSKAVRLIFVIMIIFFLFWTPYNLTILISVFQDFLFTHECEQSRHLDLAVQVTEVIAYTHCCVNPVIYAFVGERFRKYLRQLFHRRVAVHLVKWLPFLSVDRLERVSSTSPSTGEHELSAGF
As to the kind of experiment: Method B: calcium flux in CCR1 transfected cells (Calcium 4 dye, […] FDSS6000), block of the CCR1/MIP-1α interaction. The experiment is classed as cell-based. The following applies: Method B: Calcium 4 dye, MIP-1alpha at EC80. As to the method: Compounds are assessed for the ability to block the interaction of CCR1 and MIP-1α in a functional cellular assay measuring calcium flux in CCR1 transfected cells.
Method B: Non-adherent cells purchased from Chemicon Corporation (HTS005C), stably expressing recombinant CCR1 and G-alpha-16 are grown in RPMI 1640 medium (Mediatech 10-080-CM) supplemented with 10% FBS, 0.4 mg/mL Geneticin and penicillin/streptomycin. On the day of the assay, the cells are loaded with Calcium 4 dye (Molecular Devices R7448) with Probenecid (Invitrogen P346400) at 8E5 cells/mL for 1 hour at room temperature. After 1 hour, they are seeded in a 384-well tissue culture-treated plate at a density of 20,000 cells/well. Appropriately diluted test compound is added to the well to achieve a top concentration of 3,000 nM (diluted 4-fold with 10 doses total). The final concentration of DMSO is 1%. The buffer is HBSS (Invitrogen 14025) with 20 mM HEPES at pH 7.4. The cells incubate 30 minutes at 37 C and then 30 minutes at room temperature. The plates are transferred to the […] FDSS6000 where MIP-1alpha in 1% BSA is added at the EC80 final concentration. All plates must be read within 4 hours of the start of dye-loading. Wells+/−MIP-1alpha containing diluted DMSO instead of compound serve as the controls. Data are analyzed using Activity Base software.
A general note: Calcium flux is commonly read through the fluorescence of an indicator in the cells.

On to `CCC[C@@H](NC(=O)c1cncc2c1cnn2-c1ccc(F)cc1)c1ccc(OC)c(S(C)(=O)=O)c1` [1-(4-Fluorophenyl)-1H-pyrazolo[3,4-c]pyridine-4-carboxylic acid [(R)-1-(3-methanesulfonyl-4-methoxy-phenyl)-butyl]-amide], for which the pIC50 was 9.70.
For the molecule `CC[C@H](NC(=O)c1cncc2c1cnn2-c1ccc(F)cc1)c1ccnc([S+](C)[O-])c1` (stereo partly drawn) [1-(4-Fluorophenyl)-1H-pyrazolo[3,4-c]pyridine-4-carboxylic acid [(S)-1-(2-methanesulfinyl-pyridin-4-yl)-propyl]-amide], the pIC50 is 9.30.
To `CCS(=O)(=O)c1ccc([C@H](C)NC(=O)c2cncc3c2cnn3-c2ccc(F)cc2)cn1` [1-(4-Fluorophenyl)-1H-pyrazolo[3,4-c]pyridine-4-carboxylic acid [(S)-1-(6-ethanesulfonyl-pyridin-3-yl)-ethyl]-amide] belongs 8.22; to `C[C@H](NC(=O)c1cncc2c1cnn2-c1ccc(F)cc1)c1cnc(S(C)(=O)=O)s1` [1-(4-Fluorophenyl)-1H-pyrazolo[3,4-c]pyridine-4-carboxylic acid [(S)-1-(2-methanesulfonyl-thiazol-5-yl)-ethyl]-amide], 8.22; to `CC[C@H](NC(=O)c1cncc2c1cnn2-c1ccc(F)cc1)[C@@H]1CCN(S(C)(=O)=O)[C@@H](C(N)=O)C1` [1-(4-Fluorophenyl)-1H-pyrazolo[3,4-c]pyridine-4-carboxylic acid [(S)-1-((2R,4R)-2-carbamoyl-1-methanesulfonyl-piperidin-4-yl)-propyl]-amide], 8.00.
`CC[C@H](NC(=O)c1cncc2c1cnn2-c1ccc(F)cc1)c1ccc(O)c(S(C)(=O)=O)c1` [1-(4-Fluorophenyl)-1H-pyrazolo[3,4-c]pyridine-4-carboxylic acid [(S)-1-(4-hydroxy-3-methanesulfonyl-phenyl)-propyl]-amide]: the pIC50 was 9.70.
In the case of `CCC[C@@H](NC(=O)c1cncc2c1cnn2-c1ccc(F)cc1)c1ccc(O)c(S(C)(=O)=O)c1` [1-(4-Fluorophenyl)-1H-pyrazolo[3,4-c]pyridine-4-carboxylic acid [(R)-1-(4-hydroxy-3-methanesulfonyl-phenyl)-butyl]-amide], the pIC50 was 9.70.
As to `CCC(NC(=O)c1cncc2c1cnn2-c1ccc(F)cc1)c1nc(C(=O)NCC#N)co1` (stereo not drawn) [1-(4-Fluorophenyl)-1H-pyrazolo[3,4-c]pyridine-4-carboxylic acid {1-[4-(cyanomethyl-carbamoyl)-oxazol-2-yl]-propyl}-amide], the pIC50 was 7.60.
Then `O=C(NCc1cc(Br)cs1)c1cncc2c1cnn2-c1ccc(F)cc1` [1-(4-Fluorophenyl)-1H-pyrazolo[3,4-c]pyridine-4-carboxylic acid (4-bromo-thiophen-2-ylmethyl)-amide], with 8.15; and `CC[C@H](NC(=O)c1cncc2c1cnn2-c1ccc(F)cc1)c1c[nH]c(S(C)(=O)=O)c1` [1-(4-Fluorophenyl)-1H-pyrazolo[3,4-c]pyridine-4-carboxylic acid [(S)-1-(5-methanesulfonyl-1H-pyrrol-3-yl)-propyl]-amide], with 9.05.
As to `CC(C)(O)CNS(=O)(=O)c1ccc(CNC(=O)c2cncc3c2cnn3-c2ccc(F)cc2)cc1` [1-(4-Fluorophenyl)-1H-pyrazolo[3,4-c]pyridine-4-carboxylic acid 4-(2-hydroxy-2-methyl-propylsulfamoyl)-benzylamide], the pIC50 was 9.00.
In the case of `C=CC[C@H](NC(=O)c1cncc2c1cnn2-c1ccc(F)cc1)c1ccncc1` [1-(4-Fluorophenyl)-1H-pyrazolo[3,4-c]pyridine-4-carboxylic acid ((S)-1-pyridin-4-yl-but-3-enyl)-amide], the pIC50 is 7.49.
Then `COC(=O)CCS(=O)(=O)c1cccc([C@H](C)NC(=O)c2cncc3c2cnn3-c2ccc(F)cc2)n1` [3-[6-((S)-1-{[1-(4-Fluorophenyl)-1H-pyrazolo[3,4-c]pyridine-4-carbonyl]-amino}-ethyl)-pyridine-2-sulfonyl]-propionic acid methyl ester], with 7.46; and `CCC(NC(=O)c1cncc2c1cnn2-c1ccc(F)cc1)C1CCCN(C(=O)OC(C)(C)C)C1` (stereo not drawn) [3-(1-{[1-(4-Fluorophenyl)-1H-pyrazolo[3,4-c]pyridine-4-carbonyl]-amino}-propyl)-piperidine-1-carboxylic acid tert-butyl ester], with 7.59; and `CC[C@H](NC(=O)c1cncc2c1cnn2-c1ccc(F)cc1)c1ccn(S(C)(=O)=O)n1` [1-(4-Fluorophenyl)-1H-pyrazolo[3,4-c]pyridine-4-carboxylic acid [(S)-1-(1-methanesulfonyl-1H-pyrazol-3-yl)-propyl]-amide], with 8.52.
Then `CS(=O)(=O)c1cc(CNC(=O)c2cncc3c2cnn3-c2ccc(F)cc2)cc(Br)n1` [1-(4-Fluorophenyl)-1H-pyrazolo[3,4-c]pyridine-4-carboxylic acid (2-bromo-6-methanesulfonyl-pyridin-4-ylmethyl)-amide], with 9.00; and `C[C@H](NC(=O)c1cncc2c1cnn2-c1ccc(F)cc1)c1ccnc(S(N)(=O)=O)c1` [1-(4-Fluorophenyl)-1H-pyrazolo[3,4-c]pyridine-4-carboxylic acid [(S)-1-(2-sulfamoyl-pyridin-4-yl)-ethyl]-amide], with 8.52.
With `CC[C@H](NC(=O)c1cncc2c1cnn2-c1ccc(F)cc1)c1ccnc(N2CCC(S(C)(=O)=O)CC2)c1` [1-(4-Fluorophenyl)-1H-pyrazolo[3,4-c]pyridine-4-carboxylic acid [(S)-1-(4-methanesulfonyl-3,4,5,6-tetrahydro-2H-[1,2′]bipyridinyl-4′-yl)-propyl]-amide], the pIC50 is 7.89.
Consider `COC(=O)C[C@H](NC(=O)c1cncc2c1cnn2-c1ccc(F)cc1)c1ccnc(S(C)(=O)=O)c1` [(S)-3-{[1-(4-Fluorophenyl)-1H-pyrazolo[3,4-c]pyridine-4-carbonyl]-amino}-3-(2-methanesulfonyl-pyridin-4-yl)-propionic acid methyl ester], for which the pIC50 is 8.40.
As to `CC[C@H](NC(=O)c1cncc2c1cnn2-c1ccc(F)cc1)c1nc(S(C)(=O)=O)cs1` [1-(4-Fluorophenyl)-1H-pyrazolo[3,4-c]pyridine-4-carboxylic acid [(S)-1-(4-methanesulfonyl-thiazol-2-yl)-propyl]-amide], the pIC50 was 9.52.
To `CCC(CC)(NC(=O)c1cncc2c1cnn2-c1ccc(F)cc1)c1cnc(S(C)(=O)=O)s1` [1-(4-Fluorophenyl)-1H-pyrazolo[3,4-c]pyridine-4-carboxylic acid [1-ethyl-1-(2-methanesulfonyl-thiazol-5-yl)-propyl]-amide] belongs 7.55; to `CC[C@H](NC(=O)c1cncc2c1cnn2-c1ccc(F)cc1)c1ccnc(N(C)C2CCNCC2)c1` [1-(4-Fluorophenyl)-1H-pyrazolo[3,4-c]pyridine-4-carboxylic acid {(S)-1-[2-(methyl-piperidin-4-yl-amino)-pyridin-4-yl]-propyl}-amide], 7.96; to `CC[C@H](NC(=O)c1cncc2c1cnn2-c1ccc(F)cc1)c1cnc(S(C)(=O)=O)s1` [1-(4-Fluorophenyl)-1H-pyrazolo[3,4-c]pyridine-4-carboxylic acid [(S)-1-(2-methanesulfonyl-thiazol-5-yl)-propyl]-amide], 9.22.
On to `CCC(C)(NC(=O)c1cncc2c1cnn2-c1ccc(F)cc1)c1ccnc(Br)c1` (stereo not drawn) [1-(4-Fluorophenyl)-1H-pyrazolo[3,4-c]pyridine-4-carboxylic acid [1-(2-bromo-pyridin-4-yl)-1-methyl-propyl]-amide], for which the pIC50 is 7.96.
With `CC[C@H](NC(=O)c1cncc2c1cnn2-c1ccc(F)cc1)c1ccnc(N2CCOCC2)c1` [1-(4-Fluorophenyl)-1H-pyrazolo[3,4-c]pyridine-4-carboxylic acid [(S)-1-(2-morpholin-4-yl-pyridin-4-yl)-propyl]-amide], the pIC50 is 9.15.
Then `C[C@H](NC(=O)c1cncc2c1cnn2-c1ccc(F)cc1)c1cc(S(C)(=O)=O)[nH]c(=O)c1` [1-(4-Fluorophenyl)-1H-pyrazolo[3,4-c]pyridine-4-carboxylic acid [(S)-1-(6-methanesulfonyl-2-oxo-1,2-dihydropyridin-4-yl)-ethyl]-amide], with 8.52; and `CC[C@H](NC(=O)c1cncc2c1cnn2-c1ccc(F)cc1)c1cc(N(C)C)nc(S(C)(=O)=O)c1` [1-(4-Fluorophenyl)-1H-pyrazolo[3,4-c]pyridine-4-carboxylic acid [(S)-1-(2-dimethylamino-6-methanesulfonyl-pyridin-4-yl)-propyl]-amide], with 9.70.
